These results are taken from ChEMBL document CHEMBL1146400, “10-Epi-olguine from Rabdosia ternifolia” (1997).

What all share (format): functional
Holding throughout (conditions): read-out: ED50 (the source's name)

For one test, the system named is KB. As to the kind of experiment: Cytotoxicity against human KB cells.
The test system of a further test is Col2. Briefly: Cytotoxicity against human Col2 cells.
A short description of test [1]: Cytotoxicity against human KBVIN cells in absence of vinblastine.
Test [2] is described as follows: Cytotoxicity against human KBVIN cells in presence of vinblastine.
The next test deals with Lu1. Briefly: Cytotoxicity against human Lu1 cells.
A short description of test [3]: Cytotoxicity against human BC1 cells.
The test system of another test is LNCaP. As to the kind of experiment: Cytotoxicity against human LNCAP cells.

≈ marks a conversion by molar mass, not a printed value.

For the molecule `CC(=O)O[C@@H](C)[C@@H](/C=C/[C@@H]1O[C@@H]1[C@@H]1OC(=O)C=C[C@@H]1OC(C)=O)OC(C)=O`, the EC50 in the test on KB was determined as 1.8 µg/mL (≈ 4.71 µM); with Col2 it was 2.1 µg/mL (≈ 5.49 µM); in test [1], 2.1 µg/mL (≈ 5.49 µM); in test [2] it was 2.2 µg/mL; with Lu1 it was 4.8 µg/mL (≈ 12.6 µM); in test [3] it was 1.8 µg/mL (≈ 4.71 µM). The EC50 with LNCaP worked out at 1.2 µg/mL (≈ 3.14 µM).
